# Laboratory results as given in article PMC3903478, “Expression and Properties of the Highly Alkalophilic Phenylalanine Ammonia-Lyase of Thermophilic Rubrobacter xylanophilus” (PLoS ONE, 2014).
# Biological target: T1, RxPAL (phenylalanine ammonia-lyase of Rubrobacter xylanophilus) (Rubrobacter xylanophilus, UniProt Q1AV79)
# T1 construct: gene Rxyl_1739; full length (540 AA), N-terminal His6-tag kept, codon-optimised synthetic gene in pBAD-HisB, expressed in E. coli TOP10, Ni-NTA purified; MIO prosthetic group formed from ASG
# Test: UV spectrophotometry at […] nm, cinnamic acid formation
# Format: biochemical
# Settings: 20 mM L-phenylalanine, 0.1 M buffers pH 4.0-12, ionic strength 250 mM
# T1 sequence (Q1AV79 entry or part of it): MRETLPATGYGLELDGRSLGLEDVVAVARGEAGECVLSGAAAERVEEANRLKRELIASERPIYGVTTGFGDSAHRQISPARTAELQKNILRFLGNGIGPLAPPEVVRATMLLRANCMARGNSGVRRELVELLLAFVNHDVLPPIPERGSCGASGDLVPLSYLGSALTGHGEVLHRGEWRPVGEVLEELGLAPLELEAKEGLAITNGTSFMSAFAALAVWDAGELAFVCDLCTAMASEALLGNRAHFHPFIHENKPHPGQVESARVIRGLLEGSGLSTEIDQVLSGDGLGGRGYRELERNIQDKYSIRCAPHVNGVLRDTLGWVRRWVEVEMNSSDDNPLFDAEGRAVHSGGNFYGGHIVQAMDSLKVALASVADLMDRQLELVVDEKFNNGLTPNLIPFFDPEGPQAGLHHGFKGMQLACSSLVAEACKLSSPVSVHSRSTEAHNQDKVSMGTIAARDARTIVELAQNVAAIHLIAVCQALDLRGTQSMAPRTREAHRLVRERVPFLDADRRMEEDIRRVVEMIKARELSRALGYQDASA
structure (smiles),measurement,value
N[C@@H](Cc1ccccc1)C(=O)O [L-phenylalanine],"UV spectrophotometry at 290 nm, cinnamic acid formation",Progress of ammonia elimination from L-phenylalanine was monitored by detection of (E)-cinnamic acid production
